From patent US20230139171A1 (SITA Information Networking Computing UK Limited, priority 2019, published 2023) come the findings set out here.

Where only a bound is given, the exact number is not on record here.

What all share (type): cell-based
The target of one assay is T1, human TLR9 (Homo sapiens, UniProt Q9NR96).
T1 construct: host or cells: HEK-Blue cells
T1 sequence (Q9NR96 26-1032): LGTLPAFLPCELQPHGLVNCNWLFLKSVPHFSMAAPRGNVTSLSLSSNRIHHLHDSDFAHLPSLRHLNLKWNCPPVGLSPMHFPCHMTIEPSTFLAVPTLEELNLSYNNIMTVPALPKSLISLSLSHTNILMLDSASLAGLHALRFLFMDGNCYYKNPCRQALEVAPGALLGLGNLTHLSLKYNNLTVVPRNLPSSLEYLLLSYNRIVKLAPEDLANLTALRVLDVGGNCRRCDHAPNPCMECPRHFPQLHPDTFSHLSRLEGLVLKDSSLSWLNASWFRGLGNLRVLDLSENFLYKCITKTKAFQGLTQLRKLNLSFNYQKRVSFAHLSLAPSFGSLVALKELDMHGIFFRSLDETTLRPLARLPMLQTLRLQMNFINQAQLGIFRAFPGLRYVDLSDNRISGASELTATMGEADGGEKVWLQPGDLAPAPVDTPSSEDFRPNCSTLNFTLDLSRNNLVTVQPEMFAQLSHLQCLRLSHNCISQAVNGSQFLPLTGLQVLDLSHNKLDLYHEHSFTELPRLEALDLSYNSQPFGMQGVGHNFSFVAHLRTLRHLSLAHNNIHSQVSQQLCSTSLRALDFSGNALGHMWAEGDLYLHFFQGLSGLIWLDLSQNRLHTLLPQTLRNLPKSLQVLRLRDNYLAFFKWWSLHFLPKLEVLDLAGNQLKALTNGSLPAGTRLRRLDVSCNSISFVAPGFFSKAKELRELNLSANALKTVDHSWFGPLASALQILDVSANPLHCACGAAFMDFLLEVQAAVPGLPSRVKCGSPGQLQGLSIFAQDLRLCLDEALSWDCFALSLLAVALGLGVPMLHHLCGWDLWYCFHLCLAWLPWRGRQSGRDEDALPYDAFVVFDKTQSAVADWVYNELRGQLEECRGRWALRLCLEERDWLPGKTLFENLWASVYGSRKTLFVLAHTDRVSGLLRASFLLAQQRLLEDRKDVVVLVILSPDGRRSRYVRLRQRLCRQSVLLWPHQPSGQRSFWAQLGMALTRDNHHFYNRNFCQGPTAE
As to the kind of experiment: TLR9 inhibition reporter assay (HEK-Blue cells, SEAP reporter, ODN2006 stimulation). Conditions: HEK-Blue cells overexpressing human TLR9, SEAP reporter, ODN2006 5 nM. Put shortly: (§1)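 HEK-Blue cells overexpressing human TLR7, TLR8 or TLR9 carry a SEAP reporter driven by NF-κB/AP-1 sites. Compounds (0.05 nM–50 μM) were preincubated 30 min at room temperature, then cells were stimulated with gardiquimod 7.5 μM (TLR7), R848 15.9 μM (TLR8) or ODN2006 5 nM (TLR9) for 22 h at 37 °C.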

A further assay deals with T2, human TLR7 (Homo sapiens, UniProt Q9NYK1).
T2 construct: host or cells: HEK-Blue cells
T2 sequence (Q9NYK1 27-1049): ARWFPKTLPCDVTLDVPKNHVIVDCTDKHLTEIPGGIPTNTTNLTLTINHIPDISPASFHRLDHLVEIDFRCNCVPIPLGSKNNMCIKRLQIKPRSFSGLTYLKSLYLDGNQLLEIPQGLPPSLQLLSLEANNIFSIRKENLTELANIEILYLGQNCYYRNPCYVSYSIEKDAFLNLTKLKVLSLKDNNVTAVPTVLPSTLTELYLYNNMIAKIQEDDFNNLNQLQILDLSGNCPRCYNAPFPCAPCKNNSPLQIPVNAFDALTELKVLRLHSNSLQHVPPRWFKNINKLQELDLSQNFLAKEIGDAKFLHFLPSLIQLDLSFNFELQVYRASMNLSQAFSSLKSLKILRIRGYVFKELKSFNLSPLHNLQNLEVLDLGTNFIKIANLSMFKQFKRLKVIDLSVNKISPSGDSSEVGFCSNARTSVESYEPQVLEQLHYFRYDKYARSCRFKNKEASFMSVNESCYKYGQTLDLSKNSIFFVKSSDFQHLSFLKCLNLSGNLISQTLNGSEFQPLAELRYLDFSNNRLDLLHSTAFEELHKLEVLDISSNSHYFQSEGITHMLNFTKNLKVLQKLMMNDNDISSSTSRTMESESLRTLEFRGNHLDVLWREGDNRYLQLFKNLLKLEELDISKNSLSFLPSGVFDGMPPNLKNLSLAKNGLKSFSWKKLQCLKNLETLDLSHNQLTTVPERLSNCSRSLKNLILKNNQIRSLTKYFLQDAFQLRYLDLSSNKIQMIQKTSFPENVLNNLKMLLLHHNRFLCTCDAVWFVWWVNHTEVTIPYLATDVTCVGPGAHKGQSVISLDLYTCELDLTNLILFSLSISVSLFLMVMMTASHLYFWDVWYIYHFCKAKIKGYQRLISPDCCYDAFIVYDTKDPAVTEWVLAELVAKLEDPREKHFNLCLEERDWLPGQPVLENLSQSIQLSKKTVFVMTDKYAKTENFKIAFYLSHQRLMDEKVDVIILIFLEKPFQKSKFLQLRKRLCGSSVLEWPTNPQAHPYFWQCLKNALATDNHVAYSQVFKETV
The assay can be described thus: TLR7 inhibition reporter assay (HEK-Blue cells, SEAP reporter, gardiquimod stimulation). Conditions: HEK-Blue cells overexpressing human TLR7, SEAP reporter, gardiquimod 7.5 μM; read-out: TLR7 IC50. Put shortly:
as §1

The next assay addresses T3, human TLR8 (Homo sapiens, UniProt Q9NR97).
T3 construct: host or cells: HEK-Blue cells
T3 sequence (Q9NR97 27-1041): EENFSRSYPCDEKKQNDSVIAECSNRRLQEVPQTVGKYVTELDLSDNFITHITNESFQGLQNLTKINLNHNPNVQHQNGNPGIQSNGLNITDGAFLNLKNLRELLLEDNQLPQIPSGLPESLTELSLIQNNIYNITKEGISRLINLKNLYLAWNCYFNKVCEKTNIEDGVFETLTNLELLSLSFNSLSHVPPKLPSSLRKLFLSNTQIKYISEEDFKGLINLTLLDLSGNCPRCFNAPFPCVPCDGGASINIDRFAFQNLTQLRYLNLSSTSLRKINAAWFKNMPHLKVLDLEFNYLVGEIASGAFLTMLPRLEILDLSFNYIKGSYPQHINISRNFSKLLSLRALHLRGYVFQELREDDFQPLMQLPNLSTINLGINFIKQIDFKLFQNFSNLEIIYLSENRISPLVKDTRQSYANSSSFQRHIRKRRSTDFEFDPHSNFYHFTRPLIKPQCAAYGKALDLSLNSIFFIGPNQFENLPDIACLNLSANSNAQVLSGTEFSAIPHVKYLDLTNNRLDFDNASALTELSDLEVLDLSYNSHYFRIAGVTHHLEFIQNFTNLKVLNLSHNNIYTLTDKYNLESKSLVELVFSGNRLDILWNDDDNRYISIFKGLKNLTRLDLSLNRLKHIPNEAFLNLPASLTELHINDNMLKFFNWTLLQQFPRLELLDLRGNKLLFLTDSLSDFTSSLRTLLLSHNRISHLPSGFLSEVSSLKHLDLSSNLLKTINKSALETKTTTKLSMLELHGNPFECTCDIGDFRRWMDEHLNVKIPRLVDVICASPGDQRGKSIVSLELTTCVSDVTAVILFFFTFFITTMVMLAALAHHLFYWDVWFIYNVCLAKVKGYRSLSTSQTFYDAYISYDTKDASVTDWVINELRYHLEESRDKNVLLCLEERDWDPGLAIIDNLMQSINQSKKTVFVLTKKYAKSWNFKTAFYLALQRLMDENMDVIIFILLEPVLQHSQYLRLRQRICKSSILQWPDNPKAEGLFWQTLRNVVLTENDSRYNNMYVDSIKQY
The assay can be described thus: TLR8 inhibition reporter assay (HEK-Blue cells, SEAP reporter, R848 stimulation). Conditions: HEK-Blue cells overexpressing human TLR8, SEAP reporter, R848 15.9 μM; read-out: TLR8 IC50. Put shortly: as §1

As for `Cc1c(-c2[nH]c3sc(C(=O)NC4CCC(N(C)C)CC4)nc3c2C(C)C)cn2ncnc2c1C` (single isomer, unassigned) [Example 368, 5-(7,8-dimethyl-[1,2,4]triazolo[1,5-a]pyridin-6-yl)-N-(4-(dimethylamino)cyclohexyl)-6-isopropyl-4H-pyrrolo[3,2-d]thiazole-2-carboxamide], the values for the half-inhibitory concentration (IC50) on human TLR9, at human TLR7 and at human TLR8 were 5460 nM, 10.5 nM and 28.1 nM, respectively.
Taken in the same sequence, the figures for `CC(C)c1c(-c2cn(C)c3ncccc23)[nH]c2sc(C3CCN(CC(=O)N(C)C)CC3)nc12` [Example 30, 2-(4-(6-isopropyl-5-(1-methyl-1H-pyrrolo[2,3-b]pyridin-3-yl)-4H-pyrrolo[3,2-d]thiazol-2-yl)piperidin-1-yl)-N,N-dimethylacetamide] were 14800 nM, 4.37 nM and 2.07 nM.
`Cc1c(-c2[nH]c3sc(C4CCC(NCC(=O)N(C)C)CC4)nc3c2C(C)C)cn2ncnc2c1C` (single isomer, unassigned) [Example 204, 2-((4-(5-(7,8-dimethyl-[1,2,4]triazolo[1,5-a]pyridin-6-yl)-6-isopropyl-4H-pyrrolo[3,2-d]thiazol-2-yl)cyclohexyl)amino)-N,N-dimethylacetamide]: the concentration for half-maximal inhibition (IC50) was 17800 nM at human TLR9, 1.5 nM at human TLR7 and 0.63 nM on human TLR8.
Consider `Cc1c(-c2[nH]c3sc(N4CCC(NC5CCC5)CC4)nc3c2C(C)C)cn2ncnc2c1C` [Example 293, N-cyclobutyl-1-(5-(7,8-dimethyl-[1,2,4]triazolo[1,5-a]pyridin-6-yl)-6-isopropyl-4H-pyrrolo[3,2-d]thiazol-2-yl) piperidin-4-amine], for which the IC50 worked out at 6650 nM against human TLR9, 2.98 nM at human TLR7 and 0.38 nM at human TLR8.
The matching figures for `COc1cc(-c2[nH]c3sc(C4CCC(N5CC6(CCOCC6)C5)CC4)nc3c2C(C)C)cn2ncnc12` (single isomer, unassigned) [Example 110, 2-(4-(6-isopropyl-5-(8-methoxy-[1,2,4]triazolo[1,5-a]pyridin-6-yl)-4H-pyrrolo[3,2-d]thiazol-2-yl)cyclohexyl)-7-oxa-2-azaspiro[3.5]nonane]: 5780 nM, 2.21 nM and 0.93 nM.
On to `COc1cc(-c2[nH]c3sc(C(=O)NCC(F)F)nc3c2C(C)C)cn2ncnc12` [Example 389, N-(2,2-difluoroethyl)-6-isopropyl-5-(8-methoxy-[1,2,4]triazolo[1,5-a]pyridin-6-yl)-4H-pyrrolo[3,2-d]thiazole-2-carboxamide], for which the IC50 against human TLR9 is 37100 nM; at human TLR7, 50.3 nM; on human TLR8 it was 168 nM.
For the compound `Cc1cc2ncnn2cc1-c1[nH]c2sc(C3CCC(N4CCCOCC4)CC3)nc2c1C(C)C` (single isomer, unassigned) [Example 146, 4-(4-(6-isopropyl-5-(7-methyl-[1,2,4]triazolo[1,5-a]pyridin-6-yl)-4H-pyrrolo[3,2-d]thiazol-2-yl)cyclohexyl)-1,4-oxazepane], the concentration for half-maximal inhibition (IC50) on human TLR9 worked out at 16300 nM; on human TLR7, 19.7 nM; at human TLR8 it was 0.92 nM.
On to `CC(C)c1c(-c2cn(C)c3ncccc23)[nH]c2sc(C3CCC(NCC(C)(C)O)CC3)nc12` (single isomer, unassigned) [Example 183, 1-((4-(6-isopropyl-5-(1-methyl-1H-pyrrolo[2,3-b]pyridin-3-yl)-4H-pyrrolo[3,2-d]thiazol-2-yl)cyclohexyl)amino)-2-methylpropan-2-ol], for which the concentration for half-maximal inhibition (IC50) was determined as 6790 nM at human TLR9, 8.89 nM on human TLR7 and 9.41 nM on human TLR8.
On to `COc1cc(-c2[nH]c3sc(C4CCC(N(C)C5COC5)CC4)nc3c2C(C)C)cn2ncnc12` (stereo not drawn) [Example 124, N-(4-(6-isopropyl-5-(8-methoxy-[1,2,4]triazolo[1,5-a]pyridin-6-yl)-4H-pyrrolo[3,2-d]thiazol-2-yl)cyclohexyl)-N-methyloxetan-3-amine], for which the figures for the IC50 against human TLR9, at human TLR7 and on human TLR8 were 28600 nM, 7.72 nM and 31.5 nM, respectively.
As for `Cc1c(-c2[nH]c3sc(C(=O)NCC4CNCCO4)nc3c2C(C)C)cn2ncnc2c1C` (stereo not drawn) [Example 386, 5-(7,8-dimethyl-[1,2,4]triazolo[1,5-a]pyridin-6-yl)-6-isopropyl-N-(morpholin-2-ylmethyl)-4H-pyrrolo[3,2-d]thiazole-2-carboxamide], the values for the IC50 against human TLR9, on human TLR7 and at human TLR8 were 9560 nM, 10.3 nM and 3.56 nM, respectively.
As for `Cc1cc(-c2[nH]c3sc(N4CCN(C(C)C)C[C@H]4C)nc3c2C(C)C)cn2ncnc12` [Example 366, (R)-6-isopropyl-2-(4-isopropyl-2-methylpiperazin-1-yl)-5-(8-methyl-[1,2,4]triazolo[1,5-a]pyridin-6-yl)-4H-pyrrolo[3,2-d] thiazole], the IC50 is 6260 nM at human TLR9, more than 3130 nM at human TLR7 and more than 3130 nM at human TLR8.
